Experimental data from US20140248291A1, “Modulation of Cellular Migration” (THE UAB RESEARCH FOUNDATION, priority 2011, published 2014).

Experiments:
[1] = tested on: D54-MG-GFP glioma cells; assay: Transwell migration assay; format: cell-based, human; conditions: antagonist 1 μM with BK, 5 h
Method: The day before the experiment was performed, ˜70% confluent dishes of cells were prepared. Transwell migration Fluoroblock cell culture inserts (BD Biosciences, San Jose, Calif.) with 8 μm pores were coated overnight with Vitronectin (BD Biosciences, San Jose, Calif.) at a concentration of 5 μg/ml in PBS. The following day, inserts were blocked with 1% fatty acid-free bovine serum albumin for 1 h. Inserts were then washed two times in PBS, and 400 μl of Migration Assay Buffer (MAB, 0.1% fatty acid-free bovine serum albumin in serum-free media) was added to the bottom of each well. Cells were rinsed once in PBS and were lifted off the dish by the addition of 0.5 mm EGTA. Cells were rinsed twice by centrifugation and resuspended in MAB and counted. Forty thousand cells were plated on the top of each filter and allowed to adhere for 30 min before drug was added. When BK+/−antagonists was added to the filters, it was added only to the bottom of the filter for chemotaxis. For migration assay, D54-EGFP MG cells were allowed to migrate for 5 hours, washed with PBS, fixed with 4% paraformaldehyde 15 minutes at room temperature, washed thrice and counterstained with DAPI for 5 minutes at room temperature. Invasion assay was performed similarly. Matrigel cell cultured inserts (BD Biosciences, San Jose, Calif.) with 8 μm pores were pretreated Vitronectin and blocked as described above. […] The number of nuclei that migrated through pores was counted. All counts per treatment were averaged and SE values were calculated. […]
To investigate the hypothesis that BK promotes glioma migration in vitro, we used Transwell migration assay which conveniently permit examination of cell migration across a membrane barrier with 8 μm pores towards vitronectin, a chemo-attractant extracellular matrix protein. This frequently used assay allows a quantitative study of drug effects with regards to drugs acting as motogens or as chemo-attractants. […]

[2] = biological target: T1, rat B2R (Rattus norvegicus, UniProt P25023); design: expressed in transfected cells; host or cells: Cos-7 cells; conditions: Cos-7 cells expressing the rat receptor, n=3; read-out: KI, displacement of [3H]-BK binding; cited from earlier work
T1 sequence (P25023 1-396): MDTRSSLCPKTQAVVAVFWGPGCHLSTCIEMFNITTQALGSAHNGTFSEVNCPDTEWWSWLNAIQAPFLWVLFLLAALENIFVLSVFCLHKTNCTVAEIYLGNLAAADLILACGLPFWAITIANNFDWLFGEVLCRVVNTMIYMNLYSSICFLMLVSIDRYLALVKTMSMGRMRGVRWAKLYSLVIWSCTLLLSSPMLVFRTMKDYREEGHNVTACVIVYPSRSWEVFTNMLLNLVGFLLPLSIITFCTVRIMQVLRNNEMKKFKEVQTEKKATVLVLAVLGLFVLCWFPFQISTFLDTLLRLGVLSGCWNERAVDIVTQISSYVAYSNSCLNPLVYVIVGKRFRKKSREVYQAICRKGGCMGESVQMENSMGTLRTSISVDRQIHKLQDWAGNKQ

[3] = biological target: T2, BK receptor in guinea-pig ileum preparations (Cavia porcellus, UniProt O70526); conditions: read-out: K1 value, receptor binding; cited from earlier work
T2 construct: from tissue; host or cells: guinea-pig ileum preparations
T2 sequence (O70526 1-372): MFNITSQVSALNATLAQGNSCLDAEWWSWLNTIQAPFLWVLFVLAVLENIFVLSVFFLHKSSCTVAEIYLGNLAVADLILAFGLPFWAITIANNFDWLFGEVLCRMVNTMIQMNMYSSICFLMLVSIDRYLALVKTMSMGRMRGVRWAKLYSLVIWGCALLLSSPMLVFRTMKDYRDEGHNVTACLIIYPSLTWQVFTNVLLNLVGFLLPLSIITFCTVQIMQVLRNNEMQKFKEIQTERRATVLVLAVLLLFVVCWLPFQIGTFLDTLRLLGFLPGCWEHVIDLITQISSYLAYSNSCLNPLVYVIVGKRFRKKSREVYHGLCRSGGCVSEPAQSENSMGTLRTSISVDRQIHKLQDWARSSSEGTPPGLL

SMILES | BK-induced increase in cells migrating through the pores [1] | Ki [2] | Ki [3]
CN(C)CCN(C)CCNC(=O)[C@@H]1CCCN1S(=O)(=O)c1ccc(NNC(=S)NC(c2ccccc2)c2ccccc2)c([N+](=O)[O-])c1 [Bradyzide] | eliminated | 0.89 nM | –
N=C(N)NCCCC(NC(=O)[C@H](N)CCCNC(=N)N)C(=O)N1CCC[C@H]1C(=O)N1C[C@H](O)C[C@H]1C(=O)NCC(=O)N[C@@H](Cc1cccs1)C(=O)N[C@@H](CO)C(=O)N1Cc2ccccc2C[C@@H]1C(=O)N1C2CCCCC2C[C@H]1C(=O)N[C@H](CCCNC(=N)N)C(=O)O (stereo partly drawn) [HOE-140, D-Arg-[Hyp^3, Thi^5, D-Tic^7, Oic^8]bradykinin] | eliminated | – | 0.798 nM
